According to publication PMC5453931, “Cathelicidin-trypsin inhibitor loop conjugate represents a promising antibiotic candidate with protease stability” (Scientific Reports, 2017):
≈ marks a conversion by molar mass, not a printed value. Where a SMILES comes first, the peptide text is derived from it. Bridges are numbered along the chain shown (N, C = ends).

Columns and labels:
[1] = 20% fresh human serum, 37 °C, colonies surviving 1 × MIC, Fig. 3B
Raw264.7 cells = assay: LPS-induced NO, cytokine and chemokine production (Griess reagent, ELISA); type: cell-based, murine; conditions: LPS 100 ng/mL, peptide 5, 10, 20 μg/mL, 24 h, Fig. 6
Protocol: RAW264.7 cells were cultured in DMEM (Gibco, Gaithersburg, USA), containing 10% fetal bovine serum, 100 U/mL streptomycin and 100 U/mL penicillin at 37 °C with 5% CO2, and plated in 24-well plate (1 × 10^6 cells/well). After adhesion, the cells were treated with LPS (100 ng/mL, from E. coli 055:B5, Sigma-Aldrich) in the absence or presence (5, 10, 20 μg/mL) of peptides for 24 h in the same condition. Untreated cells and LPS alone treated cells served as control. The NO was determined using Griess reagent (Beyotime, Jiangsu, China) according to the manufacturer’s protocol. ELISA kits (Joyee, shanghai, china) were used to detect the levels of pro-inflammatory cytokines and chemokines in RAW264.7 cell culture supernatant, including TNF-α, IL-6, IL-1β and MCP-1.

E. coli 08040726 = assay: Bacterial killing kinetic assay, colony counting; type: cell-based
Protocol: The bacterial killing kinetics of the hybrid peptides against E. coli 08040726 was determined by counting the changes in the viable bacterial clones after peptide treatment. The experiment was carried out according to the method described previously with minor modifications. Fresh colonies of the bacteria were incubated in MH broth at 37 °C for 12 h and diluted to 10^6 CFU/in fresh MH broth. The hybrid peptide was added to the bacterial suspension with a final concentration of 1x and 5x corresponding MICs, and incubated at 37 °C for 0, 10, 20, 30, 45, 60, 90, 120, and 180 mins. At each time point, aliquots (50 μL) were removed and diluted with fresh MH broth for 1000 times. […] of the dilutions were coated on MH agar plates, incubated overnight at 37 °C, and the viable colonies were counted. Ampicillin was used as positive control and sterile deionized water was used as negative control.

Vibrio Parahaemolyticus = assay: MIC, two-fold broth microdilution; type: cell-based; conditions: Aquatic pathogenic bacteria; two-fold broth microdilution, 37 °C, 18 h; mean of three independent experiments in duplicates
How it was run: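 Growth at A595 after 18 h at 37 °C defines the MIC, taken as the minimal peptide concentration giving no microbial growth. Organisms were grown to exponential phase in Mueller-Hinton broth and diluted to 10^6 CFU/mL prior to combining with an equal volume of peptide dilutions.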

SMILES: CC[C@H](C)[C@@H]1NC(=O)[C@H](CO)NC(=O)[C@H](CCCCN)NC(=O)[C@H]([C@@H](C)O)NC(=O)[C@H](Cc2c[nH]c3ccccc23)NC(=O)[C@@H](N)CSSC[C@@H](C(=O)N[C@@H](CCCCN)C(=O)N[C@@H](Cc2ccccc2)C(=O)N[C@@H](Cc2ccccc2)C(=O)N[C@@H](CCCCN)C(=O)N[C@@H](CCCNC(=N)N)C(=O)N[C@@H](Cc2ccccc2)C(=O)N[C@@H](Cc2ccccc2)C(=O)N[C@@H](CCCCN)C(=O)N[C@@H](CO)C(=O)N[C@@H](Cc2ccccc2)C(=O)N[C@@H](CCCNC(=N)N)C(=O)N[C@@H](CCCNC(=N)N)C(=O)N[C@@H](C)C(=O)N[C@@H](Cc2ccccc2)C(=O)N[C@@H](CCCCN)C(=O)N[C@@H](CCCCN)C(=O)N[C@@H](Cc2ccccc2)C(N)=O)NC(=O)[C@@H]2CCCN2C(=O)[C@H](CCCCN)NC(=O)[C@@H]2CCCN2C(=O)[C@@H]2CCCN2C1=O [TIH3F] (H-CWTKSIPPKPCKFFKRFFKSFRRAFKKF-NH2; disulfide 1-11)
- kill (%) after incubation with human serum ([1]; 6 h): 75%
- kill (%) / antimicrobial activity kept after incubation with human serum ([1]; 36 h): 65%
- LPS-induced production of NO, TNF-α, IL-6, IL-1β, MCP-1 (Raw264.7 cells): strongest anti-inflammation effect
- time of killing toward E. coli (E. coli 08040726; 1xMIC): ≤ 2 h
- time of killing toward E. coli (E. coli 08040726; 5xMIC): ≤ 0.5 h
- MIC Vibrio Parahaemolyticus (Vibrio Parahaemolyticus): 4.69 µg/mL (≈ 1.32 µM)
